pIC50: −log10 of the molar value. Activity calls are given as the source filed them. The rule behind the calls is not given here.
Molecular target: glucose-6-phosphate dehydrogenase-6-phosphogluconolactonase (Plasmodium falciparum 3D7)
Test: concentration-dependent PfGluPho enzyme inhibition – biochemical, fluorescence intensity, dose response (AID 504765)
Conditions: Recombinant PfG6PD enzyme, fluorescence intensity (NADPH)

Row | Structure (SMILES) | IC50 | pIC50
1 | CC(Cc1ccc(O)c(O)c1)C(C)Cc1ccc(O)c(O)c1 (centres undefined) | inactive | 
2 | Cc1[nH]c(=S)c(C#N)c(C)c1CCC#N | inactive | 
3 | O=[N+]([O-])c1cnc(Sc2ccncn2)c([N+](=O)[O-])c1 |  | 5.02
4 | COc1cc(N=c2ssnc2Cl)c(OC)cc1Cl |  | 4.87
5 | O=S(=O)(Nc1c(O)ccc2ccccc12)c1ccccc1 |  | 5.35
6 | Cc1ccccc1-n1c(-c2ccc3ccccc3n2)n[nH]c1=S |  | 4.84
7 | Cc1ccc(SC2=C(Sc3ccc(C)cc3)C(=O)c3ccccc3C2=O)cc1 |  | 4.96
8 | CCN(CC)c1ccc(NC(=O)c2cccc(C)c2)cc1S(=O)(=O)Nc1ccccc1OC | inactive | 
9 | CN1CCc2cc(O)cc3c2[C@H]1Cc1ccc(O)c(O)c1-3 |  | 4.82
10 | O=C1Nc2ccccc2C(=O)C1(Cl)Cc1ccccc1 (centres undefined) |  | 5.02
11 | Cc1cc(C)c2c(=O)n(CC(=O)NC3CCCC3)sc2n1 |  | 5.71
12 | C#CCCc1cscc1/C=[N+](\[O-])c1ccc(C(=O)OCC)cc1 |  | 5.53
13 | O=c1c2cc([N+](=O)[O-])ccc2sn1-c1ccccc1 |  | 5.28
14 | Cc1cc(C)nc(SSc2nc(C)cc(C)n2)n1 |  | 5.51
15 | O=C(CSc1nc2cc(Cl)ccc2s1)c1ccco1 |  | 5.22
16 | CN(C)S(=O)(=O)c1cccc(-n2sc3ccccc3c2=O)c1 |  | 5.68
17 | CN(C)Cc1cc(O)c(CN(C)C)cc1O |  | 5.69
18 | S=C(NN=Cc1ccccn1)N(Cc1ccccn1)Cc1ccccn1 |  | 5.33
19 | COC(=O)CCC(=O)Nc1sc(Cc2ccccc2)c(C)c1C(N)=O | inactive | 
20 | COc1ccc(N2CSC3=C(C#N)C(c4ccc(OC)c(OC)c4)CC(=O)N3C2)c(OC)c1 (centres undefined) |  | 5.28
21 | O=S(=O)(NCc1csc(-c2ccccc2)n1)c1ccc(Cl)s1 |  | 5.20

Row | Structure (SMILES) | IC50 | pIC50
22 | C(=N\Nc1nc2ccccc2[nH]1)/c1ccccn1 |  | 5.28
23 | CCc1ccc(OCC(=O)N/N=C/c2cc([N+](=O)[O-])ccc2N2CCOCC2)cc1 |  | 5.08
24 | CC1CCc2c(nc3sc4c(c3c2N)CCCC4)C1 (centres undefined) |  | 4.83
25 | Clc1nssc1=Nc1nncs1 |  | 4.84
26 | COc1ccc(C2(CNC(=O)c3ccc(OC)c([N+](=O)[O-])c3)CCCCC2)cc1OC |  | 5.08
27 | CCN=c1scc(C)n1/N=C/c1ccc(O)c(O)c1O |  | 5.16
28 | COCCNC(=S)Nc1ccc(N2CCOCC2)c(S(=O)(=O)Nc2ccc(Cl)cc2)c1 |  | 4.71
29 | O=c1c2ccccc2sn1-c1ccc(S(=O)(=O)N2CCCC2)cc1 |  | 5.16
30 | COc1cccc(-c2c(C(=O)N/N=C/c3ccc(C)s3)nnn2-c2nonc2N)c1 |  | 5.17
31 | Cc1ccccc1N/C(SCc1cccc(Br)c1)=C(/C#N)C(N)=O |  | 5.23
32 | CCn1c(SCc2nc3scc(-c4ccccc4)c3c(=O)[nH]2)nnc1-c1cccs1 |  | 4.76
33 | O=C1C(Cl)=C(NCCc2ccccc2)C(=O)c2ccccc21 |  | 5.48
34 | CN1CCc2cccc3c2[C@H]1Cc1ccc(O)c(O)c1-3 |  | 5.08
35 | [O-][N+](=Cc1ccccc1)c1ccc(Cl)cc1 |  | 5.48
36 | O=[N+]([O-])c1ccc(N/N=C/c2ccc(O)c(O)c2O)c(S(=O)(=O)N2CCOCC2)c1 |  | 5.06
37 | Cc1ccsc1/C=N/NC(=O)c1cccc(S(=O)(=O)Nc2ccccc2Cl)c1 |  | 4.88
38 | CCCCCCCCn1sccc1=O |  | 5.43
39 | C=CCc1ccccc1OCC(=O)N/N=C/c1ccccc1OCC |  | 5.20
40 | O=C(Nc1ccc(N2CCCC2)cc1)c1cccc(-c2cc3ccccc3oc2=O)c1 | inactive | 
41 | O=C(Nc1nnc(S(=O)(=O)N2CCOCC2)s1)c1cccc(Br)c1 |  | 5.25
42 | Oc1ccc(-c2cn3c(n2)SCC3)cc1O |  | 4.94

Row | Structure (SMILES) | IC50 | pIC50
43 | CC1(C)CN(c2ccccc2)N(C(=O)c2ccc(C#N)cc2)C1=O |  | 5.03
44 | Cc1ccc(-c2csc(NC(=O)c3ccc(Br)cc3)c2C(=O)O)cc1 |  | 5.20
45 | CCN(CC)c1nc(N)nc(NS(=O)(=O)c2ccc(Cl)cc2)n1 |  | 5.21
46 | O=C1C=CC(=O)N1c1ccc2c(c1)C(NC(=O)C(F)(F)F)c1ccccc1-2 (centres undefined) |  | 5.04
47 | O=C(CNC(=O)c1cccs1)NCC(=O)OCC(=O)c1ccc([N+](=O)[O-])cc1 |  | 4.78
48 | Cc1cc(C)c(S(=O)(=O)/N=C2/C=C(SCC(=O)O)C(=O)c3ccccc32)cc1C |  | 5.62
49 | c1ccc(SSc2ccccn2)nc1 |  | 5.01
50 | Cn1c(=O)[nH]c(=O)c2c1[nH]c(=S)n2CCCc1ccccc1 | inactive | 
51 | O=C(Nc1nnc(C2CC2)s1)c1ccc(Cl)nc1 |  | 5.38
52 | [O-]/[N+](=C\c1ccccc1)c1ccc(Br)cc1 |  | 6.08
53 | CCC(C)(C)c1nnc(NC(=O)C2CCN(C(=O)c3ccco3)CC2)s1 | inactive | 
54 | Cc1ccc2nc3sc(C(=O)N4CCOCC4)c(N)c3cc2c1 |  | 4.89
55 | Cc1ccc(-n2sc3cc(F)ccc3c2=O)c(C)c1 |  | 5.84
56 | O=C1C=CC2=C3c4cc(O)c(O)cc4CC3(O)COC2=C1O (centres undefined) |  | 5.19
57 | COC1(OC)C=CC(=O)C=C1NC(=O)c1ccccc1OC(C)=O |  | 5.03
58 | O=S(=O)(Nc1cc(Sc2cccc3cccnc23)c(O)c2ccccc12)c1ccc(F)cc1 |  | 5.91
59 | COc1ccc(C(=O)c2c(C(F)(F)F)oc3c2C(=O)c2ccccc2C3=O)cc1OC | inactive | 
60 | CN1CCN(C(=S)c2ccc(Br)cc2)CC1 | inactive | 
61 | COc1cc(NCCCn2cnc(C(=O)Nc3ccc(C)c(C)c3)n2)cc(OC)c1OC | > 80 µM (inactive) | 
62 | COc1cc(/C=C2\SC(c3ccc(C)cc3)=NC2=O)cc(OC)c1O |  | 5.03
63 | COCc1cc(=O)n2[nH]c(C(C)(C)C)cc2n1 |  | 4.85

Row | Structure (SMILES) | IC50 | pIC50
64 | CCOc1ccc(CNc2ccc(N3CCCC3)cc2)cc1 |  | 5.58
65 | COc1cc(-c2nnc3n2N=C(c2ccccc2)CS3)cc(OC)c1OC |  | 5.41
66 | O=C(O)c1cc(N2C(=O)C=CC2=O)cc(N2C(=O)C=CC2=O)c1 |  | 5.36
67 | O=C1OC(c2ccc3ccccc3c2O)(c2ccc3ccccc3c2O)c2ccccc21 |  | 4.84
68 | CCOc1ccccc1C=NNC(=O)CCCCC(=O)NN=Cc1ccccc1OCC |  | 5.11
69 | CC1=CC(=NOC(=O)/C=C/c2ccccc2)C=C(C)C1=O |  | 4.86
70 | Cc1noc(C(=O)Nc2sc3c(c2C#N)CCC3)c1Cl |  | 5.32
71 | NCCc1cc(O)c(O)cc1O |  | 5.45
72 | Cc1nc2ccccn2c1-c1ccnn1S(=O)(=O)c1ccc(F)cc1 |  | 4.82
73 | CC(=O)Nc1ccc2c(=O)n(-c3ccccc3)sc2c1 |  | 5.07
74 | O=C(CNc1ccc2c(c1)OCO2)N/N=C\c1cn(Cc2ccccc2)c2ccccc12 | inactive | 
75 | Cc1ccc(/C=C/C(=O)NCC2COc3ccccc3O2)o1 (centres undefined) |  | 5.44
76 | Cc1ccc(-c2c(C(=O)N/N=C/c3ccc(C)o3)nnn2-c2nonc2N)cc1 |  | 5.84
77 | CCOC(=O)c1sc(NC(=O)CSc2nnc(Cc3ccccc3)o2)c(C#N)c1C | inactive | 
78 | CS(=O)(=O)c1ccc(N)c(SSc2cc(S(C)(=O)=O)ccc2N)c1 |  | 5.39
79 | O=c1[nH]c(NCCO)c(N=Cc2ccccc2)c(=O)[nH]1 |  | 5.99
80 | CC(C)c1cc2c(c(O)c1O)[C@@]13CCCC(C)(C)C1CC2OC3=O (some centres undefined) |  | 5.31
81 | O=C(CNC(=O)c1ccc(Br)cc1)NCC(=O)OCC(=O)c1ccc([N+](=O)[O-])cc1 |  | 4.74
82 | CN1C(=O)C(N=Nc2ccc([N+](=O)[O-])cc2)SC1=S (centres undefined) |  | 5.27
83 | Cc1nnc(Sc2cc(NCCO)c([N+](=O)[O-])c3nonc23)s1 |  | 5.25
84 | COc1ccc(S(=O)(=O)/N=C2\C=C(Nc3ccc(O)cc3)C(=O)c3ccccc32)cc1 | inactive | 
